Test results reported in US20210290816A1, “LIQUID EMBOLICS” (MicroVention, Inc., priority 2020, published 2021).
Counter-ions that a name gives are not always drawn. Each block holds one compound with its values, some of them ahead of it.

How the values were obtained:
[1] = In vitro elution of sunitinib from PHIL® solution; assay type: physicochemical; settings: 50 mg sunitinib malate in 1 mL 25 wt % PHIL®, 999 mL phosphate buffered saline
Description: The 1 mL of 25 wt % PHIL®/sunitinib solution is precipitated in 999 mL of a dissolution medium, including phosphate buffered saline.
(§1) The chromatographic analysis is performed with an Agilent Extended-C18 column (4.6 mm×50 mm, 3.5 μm). The mobile phase includes 22% acetonitrile and 78% 10 mM potassium phosphate buffer solution pH 3 with 5% acetonitrile and 7.2 mM triethylamine delivered at 1 mL/min. The injection volume is 3 μL and the wavelength of the ultraviolet detector is 429 nm. The calibration curve is prepared from 1 to 100 ppm of sunitinib.

[2] = 50 mg in 1 mL 25 wt % PHIL®, 99 mL distilled water, room temperature
Description: (§2) Fifty mg of cyclophosphamide are dissolved in 1 mL of 25 wt % PHIL® solution, which includes triiodophenol-(lactide-co-glycolide) acrylate and hydroxyethyl methacrylate in dimethyl sulfoxide. The 1 mL of 25 wt % PHIL®/cyclophosphamide solution is precipitated in 99 mL of a dissolution medium, including distilled water at room temperature. At 2, 5, 9, 14, 20, 27, 35, 44, 54, 65 and 90 minutes, 1 mL of the supernatant is pipetted out and placed in a HPLC vial.
The concentration of cyclophosphamide in each sample is determined using an Agilent 1100 HPLC system. The chromatographic analysis is performed with a Primesep 100 column (3.2 mm×50 mm, 3 μm). The mobile phase includes 5% acetonitrile and 95% HPLC water with 5% acetonitrile delivered at 1 mL/min. The injection volume is 25 μL and the wavelength of the ultraviolet detector is 197 nm. The calibration curve is prepared from 10 to 1000 ppm of cyclophosphamide. The amount of cyclophosphamide released and relative percentage are calculated from the concentration data.

[3] = In vitro elution of irinotecan from PHIL® solution; assay type: physicochemical; settings: 50 mg irinotecan hydrochloride in 1 mL 25 wt % PHIL®, 99 mL 10 mM potassium phosphate buffer pH 4.0, room temperature
Description: as §1, with “includes of 18%” for “includes 22%”, “and 82%” for “and 78%”, “is 2” for “is 3”, “is 223” for “is 429”, “nm.” for “nm. The calibration curve is prepared from 1 to 100 ppm of sunitinib.”

Canine Liver = experiment: In vivo evaluation of PHIL LV liquid embolic with irinotecan in canine liver
Description: A canine is anesthetized and a 6 Fr sheath is inserted into the femoral artery via a cutdown. A 6 Fr Glidecath is advanced retrograde into the celiac trunk and further into the hepatic artery. Following angiography, a Scepter balloon (4 mm×10 mm) is advanced through the Glidecath and into a branch of the hepatic artery. […] Blood is collected at 5, 15, 30, 60, and 120 minutes post-embolization for irinotecan quantification.

[4] = In vitro elution of paclitaxel from PHIL® solution; assay type: physicochemical; settings: 50 mg in 1 mL 25 wt % PHIL®, 199 mL 45:55 acetonitrile/10 mM potassium phosphate buffer pH 4.5, room temperature
Description: Fifty mg of paclitaxel are dissolved in 1 mL of 25 wt % PHIL® solution, which includes triiodophenol-(lactide-co-glycolide) acrylate and hydroxyethyl methacrylate in dimethyl sulfoxide. The 1 mL of 25 wt % PHIL®/Paclitaxel solution is precipitated in 199 mL of a dissolution medium, consisting of 45:55 acetonitrile/10 mM potassium phosphate buffer solution pH 4.5 at room temperature. At 2, 5, 9, 14, 20, 27, 35, 44, 54, 65 and 90 minutes, 1 mL of the supernatant is pipetted out and placed in a HPLC vial. The concentration of paclitaxel in each sample is determined using an Agilent 1100 HPLC system. The chromatographic analysis is performed with an Agilent Extended-C18 column (4.6 mm×50 mm, 3.5 μm). The mobile phase includes 50% acetonitrile and 50% 5% acetonitrile in water delivered at 1 mL/min. The injection volume is 10 μL and the wavelength of the ultraviolet detector was 227 nm. The calibration curve is prepared from 5 to 500 ppm of paclitaxel. The amount of paclitaxel released and relative percentage are calculated from the concentration data.

[5] = In vitro elution of oxaliplatin from PHIL® solution (ICP-MS platinum); assay type: physicochemical; settings: 50 mg in 1 mL 25 wt % PHIL®, 50 mL PBS replaced at each time point, room temperature
Description: The remaining supernatant is poured out and the precipitates are mixed with a fresh 50 mL of the dissolution medium at room temperature.
Samples are prepared for ICP-MS analysis to measure the platinum concentration in the supernatant by mixing a sample portion (1 mL) with 4 mL of 2% nitric acid (5-fold dilution) or a sample portion (2.5 mL) with 0.05 mL of 2% nitric acid (undiluted). The calibration curve is prepared from 0.5 to 100 ppm of platinum.

[6] = In vitro elution of gemcitabine from PHIL® solution; assay type: physicochemical; settings: 50 mg in 1 mL 25 wt % PHIL®, 99 mL PBS, room temperature
Description: The chromatographic analysis is performed with an Agilent Extended-C18 column (4.6 mm×50 mm, 3.5 μm). […] The injection volume is 3 μL and the wavelength of the ultraviolet detector is 275 nm.

[7] = In vitro elution of doxorubicin from PHIL® solution; assay type: physicochemical; settings: 50 mg doxorubicin hydrochloride in 1 mL 25 wt % PHIL®, 99 mL 10 mM potassium phosphate buffer pH 4.0, room temperature
Description: as §2, with “doxorubicin hydrochloride” for “cyclophosphamide”, “PHIL®/doxorubicin” for “PHIL®/cyclophosphamide”, “10 mM potassium phosphate buffer solution pH 4.0” for “distilled water”
The concentration of doxorubicin in each sample is determined using an Agilent 1100 HPLC system. The chromatographic analysis is performed with an Agilent Extended-C18 column (4.6 mm×50 mm, 3.5 μm). The mobile phase includes 18% acetonitrile and 82% 10 mM potassium phosphate buffer solution pH 3 with 5% acetonitrile and 7.2 mM triethylamine delivered at 1 mL/min. The injection volume is 3 μL and the wavelength of the ultraviolet detector is 234 nm. The calibration curve is prepared from 10 to 1000 ppm of doxorubicin. The amount of doxorubicin released and relative percentage are calculated from the concentration data.

[8] = In vitro elution of sorafenib from PHIL® solution; assay type: physicochemical; settings: 50 mg in 1 mL 25 wt % PHIL®, 999 mL 70:30 acetonitrile/10 mM potassium phosphate buffer pH 4.3, room temperature
Description: The 1 mL of 25 wt % PHIL®/sorafenib solution is precipitated in 999 mL of a dissolution medium, including 70:30 acetonitrile/10 mM potassium phosphate buffer solution pH 4.3 at room temperature.
as §1, with “50%” for “22%”, “50%” for “78%”, “263” for “429”, “sorafenib.” for “sunitinib.”

[9] = In vitro elution of carmustine from PHIL® solution; assay type: physicochemical; settings: 50 mg in 1 mL 25 wt % PHIL®, 99 mL distilled water, room temperature
Description: as §2, with “carmustine” for “cyclophosphamide”, “PHIL®/carmustine” for “PHIL®/cyclophosphamide”
The concentration of carmustine in each sample is determined using an Agilent 1100 HPLC system. The chromatographic analysis is performed with a Primesep 100 column (3.2 mm×50 mm, 3 μm). The mobile phase includes 10% methanol and 90% 10 mM potassium phosphate buffer solution pH 3 with 5% acetonitrile and 7.2 mM triethylamine delivered at 1 mL/min. The injection volume is 3 μL and the wavelength of the ultraviolet detector is 230 nm. The calibration curve is prepared from 10 to 1000 ppm of carmustine. The amount of carmustine released and relative percentage are calculated from the concentration data.

SMILES: CCN(CC)CCNC(=O)c1c(C)[nH]c(/C=C2\C(=O)Nc3ccc(F)cc32)c1C [sunitinib, sunitinib malate]
total amount of sunitinib eluted ([1]; first 65 minutes): 16 mg per 1 mL of PHIL®
sharp increase of sunitinib eluted ([1]; within the first 2 minutes): 11 mg

SMILES: O=P1(N(CCCl)CCCl)NCCCO1 (centres unmarked) [cyclophosphamide]
total amount of cyclophosphamide eluted ([2]; first 90 minutes): 38 mg per 1 mL of PHIL®
sharp increase of cyclophosphamide eluted ([2]; within the first 35 minutes): 35 mg

SMILES: CC(=O)O[C@H]1C(=O)[C@@]2(C)[C@H]([C@H](OC(=O)c3ccccc3)[C@]3(O)C[C@H](OC(=O)[C@H](O)[C@@H](NC(=O)c4ccccc4)c4ccccc4)C(C)=C1C3(C)C)[C@]1(OC(C)=O)CO[C@@H]1C[C@@H]2O [paclitaxel]
total amount of paclitaxel eluted ([4]; first 90 minutes): 38 mg per 1 mL of PHIL®
sharp increase of paclitaxel eluted ([4]; within the first 9 minutes): 30 mg

SMILES: O=C1[O][Pt]2([NH][C@@H]3CCCC[C@H]3[NH]2)[O]C1=O [oxaliplatin]
total amount of oxaliplatin eluted ([5]; first 80 minutes): 41 mg per 1 mL of PHIL®
sharp increase of oxaliplatin eluted ([5]; within the first 15 minutes): 37 mg

SMILES: O=NN(CCCl)C(=O)NCCCl [carmustine]
total amount of carmustine eluted ([9]; first 90 minutes): 26 mg per 1 mL of PHIL®
sharp increase of carmustine eluted ([9]; within the first 35 minutes): 21 mg

Next, values leading:

total amount of irinotecan eluted ([3]; first 90 minutes): 31 mg per 1 mL of PHIL®
sharp increase of irinotecan eluted ([3]; within the first 9 minutes): 24 mg
irinotecan in the blood, rapid rise to (Canine Liver; 1.5 mL PHIL LV loaded with 75 mg irinotecan into hepatic artery branch, blood 5-120 minutes post-embolization): about 300 ppb
tapering of irinotecan in the blood back to baseline (Canine Liver; 1.5 mL PHIL LV loaded with 75 mg irinotecan, blood collected to 120 minutes): beyond the timescale of the experiment
SMILES: CCc1c2c(nc3ccc(OC(=O)N4CCC(N5CCCCC5)CC4)cc13)-c1cc3c(c(=O)n1C2)COC(=O)[C@]3(O)CC [irinotecan, irinotecan hydrochloride]

total amount of gemcitabine eluted ([6]; first 90 minutes): 43 mg per 1 mL of PHIL®
sharp increase of gemcitabine eluted ([6]; within the first 9 minutes): 34 mg
SMILES: Nc1ccn([C@@H]2O[C@H](CO)[C@@H](O)C2(F)F)c(=O)n1 [gemcitabine]

total amount of doxorubicin eluted ([7]; first 90 minutes): 38 mg per 1 mL of PHIL®
sharp increase of doxorubicin eluted ([7]; within the first 14 minutes): 29 mg
SMILES: COc1cccc2c1C(=O)c1c(O)c3c(c(O)c1C2=O)C[C@@](O)(C(=O)CO)C[C@@H]3O[C@H]1C[C@H](N)[C@H](O)[C@H](C)O1 [doxorubicin, doxorubicin hydrochloride]

total amount of sorafenib eluted ([8]; first 90 minutes): 42 mg per 1 mL of PHIL®
sharp increase of sorafenib eluted ([8]; within the first 2 minutes): 38 mg
SMILES: CNC(=O)c1cc(Oc2ccc(NC(=O)Nc3ccc(Cl)c(C(F)(F)F)c3)cc2)ccn1 [sorafenib]
